Assay results from patent publication US9650408B2, “Therapeutic agent for hypertension” (SRI INTERNATIONAL, priority 2005, dated 2017).

Assays:
[1] = test system: postmenopausal breast cancer patients; assay: Blood pressure in postmenopausal breast cancer patients given oral TAS-108; type: in vivo, human
Experimental: TAS-108 (40 mg, 80 mg, or 120 mg) was orally administered to postmenopausal breast cancer patients (age: 50 to 78) once a day after breakfast for up to eight weeks. Blood pressure was measured in a sitting position before administration on the day of initiation of administration, and two weeks, four weeks, and eight weeks after initiation of administration.

[2] = test system: spontaneously hypertensive rats (SHRs); assay: Blood pressure and heart rate in spontaneously hypertensive rats, tail-cuff method; type: in vivo, rat; conditions: 100 mg once a day for seven days; for change in heart rate: FIG. 6 (TAS-108), FIG. 7 (raloxifene)
Experimental: TAS-108 (100 mg) was administered to nine-week-old spontaneously hypertensive rats (SHRs) once a day for consecutive seven days. Before final administration of the test drug, and 30 minutes, one hour, two hours, and four hours after the final administration, blood pressure was measured in a state where heart rate is constant by means of an […] automatic rat/mouse blood pressure measuring apparatus (BP-97A, product of Softron) according to the tail-cuff method (J. Lab. Clin. Med. 1971; 78: 957-962). For comparison, a solvent (0.5% HPMC) or raloxifene, serving as a control drug, was administered in a dose of 100 mg once a day for consecutive seven days.
Percent increase/decrease in blood pressure after final administration of the test drug was obtained on the basis of the blood pressure as measured before final administration of the drug, and the thus-obtained values were compared with one another.

estrogen receptor α = molecular target: T1, estrogen receptor α (Homo sapiens, UniProt P03372); conditions: cited from earlier work
T1 sequence (P03372 1-595): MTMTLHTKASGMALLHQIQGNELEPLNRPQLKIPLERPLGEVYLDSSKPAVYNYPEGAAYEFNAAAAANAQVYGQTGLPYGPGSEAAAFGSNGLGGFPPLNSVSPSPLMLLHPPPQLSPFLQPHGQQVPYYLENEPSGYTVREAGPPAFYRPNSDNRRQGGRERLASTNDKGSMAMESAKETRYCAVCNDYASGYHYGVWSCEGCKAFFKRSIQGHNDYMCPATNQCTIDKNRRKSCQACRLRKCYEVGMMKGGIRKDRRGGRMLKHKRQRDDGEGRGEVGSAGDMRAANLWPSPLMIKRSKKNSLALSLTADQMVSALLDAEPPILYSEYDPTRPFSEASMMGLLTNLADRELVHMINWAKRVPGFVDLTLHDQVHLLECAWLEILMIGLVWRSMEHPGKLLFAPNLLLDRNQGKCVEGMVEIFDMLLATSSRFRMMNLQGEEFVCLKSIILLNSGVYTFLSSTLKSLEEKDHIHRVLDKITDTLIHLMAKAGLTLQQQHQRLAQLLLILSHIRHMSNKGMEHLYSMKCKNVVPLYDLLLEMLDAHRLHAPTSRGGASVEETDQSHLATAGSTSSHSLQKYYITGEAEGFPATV

estrogen receptor (ER) = conditions: cited from earlier work
[3] = test system: postmenopausal hypertensive patients; conditions: 142±13 mmHg before; cited from earlier work
[4] = SHR, relative to pressure before final administration, FIG. 5
[5] = SHR, during the course of measurement, FIG. 7

Structure (SMILES) | systolic or diastolic blood pressure ([1]; four hypertensive patients (systolic 140 mmHg or higher or diastolic 90 mmHg or higher), 40, 80 or 120 mg orally once a day, two to four weeks after initiation, FIGS. 1 to 3) | change in blood pressure ([1]; remaining 11 breast cancer patients with normal blood pressure, during the course of administration, FIG. 4) | reduction of systolic blood pressure ([1]; typical hypertensive patient (FIG. 2), four weeks after initiation of administration) | systolic blood pressure after administration ([1]; typical hypertensive patient (FIG. 2), four weeks after initiation, 180 mmHg before administration) | change in heart rate ([2]; SHR) | time of maximum percent decrease in blood pressure ([2]; SHR, after final administration, FIG. 5) | reduction of diastolic blood pressure [2, 4] | reduction of mean blood pressure [2, 4] | blood pressure ([2]; all SHRs, one to two hours after final administration) | agonistic effect on estrogen receptor α (estrogen receptor α) | antagonistic effect on estrogen receptor α (estrogen receptor α) | affinity to estrogen receptor (ER) (estrogen receptor (ER)) | systolic blood pressure after administration [3] | change in diastolic blood pressure [2, 5] | change in mean blood pressure [2, 5] | change in systolic blood pressure [2, 5]
CCN(CC)Cc1ccc(OCC[C@H]2CCC3C4C(CC[C@@]32C)c2ccc(O)cc2C[C@H]4C)c(OC)c1 (stereo partly drawn) [TAS-108, (7α)-21-[4-[(Diethylamino)methyl]-2-methoxyphenoxy]-7-methyl-19-norpregna-1,3,5(10)-trien-3-ol] | reduced to fall within a normal pressure range | no considerable change in blood pressure | about 40 mmHg | 138 mmHg | No considerable change in heart rate | two hours after administration | 46.9% | 28.6% | blood pressure was reduced | virtually no agonistic effect | potent antagonistic effect | strong affinity |  |  |  | 
O=C(c1ccc(OCCN2CCCCC2)cc1)c1c(-c2ccc(O)cc2)sc2cc(O)ccc12 [raloxifene, reference compound] |  |  |  |  | no considerable change |  |  |  |  |  |  |  | 139±10 mmHg | no considerable change | no considerable change | no considerable change
